The supplement of paper PMC10307832

What was measured:
Test in all cases: relative viability (nuclei count vs DMSO), 5 days (fraction); higher = more cells survive
[1] = compound: Cc1ccc(NC(=O)c2ccc(CN3CCN(C)CC3)cc2)cc1Nc1nccc(-c2cccnc2)n1 [Imatinib] + COc1cc2c(Oc3ccc(NC(=O)C4(C(=O)Nc5ccc(F)cc5)CC4)cc3F)ccnc2cc1OCCCN1CCOCC1 [Foretinib] (partner 0.25 µM)
Summary of the method: (§1)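 Lung cancer cell lines were seeded in 1536-well plates and dosed by pin tool the next day, with either a single drug or a fixed anchor-drug dose combined with five library-drug doses (not always all listed) spaced in √10 steps. Five days later, one step fixed the cells and stained their nuclei (final 0.05% Triton X-100, 1% formaldehyde, 1 ug/ml Hoechst), and nuclei were counted on 4× images. Relative viability is the nuclei count in treated wells divided by the count in vehicle wells, and each value is the median of duplicate plates.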

[2] = compound: Cc1ccc(NC(=O)c2ccc(CN3CCN(C)CC3)cc2)cc1Nc1nccc(-c2cccnc2)n1 [Imatinib] + COc1cccc2cc(-c3nc([C@H]4CC[C@H](C(=O)O)CC4)n4ncnc(N)c34)[nH]c12 [OSI-027] (partner 0.5 µM)
Summary of the method: as §1

[3] = compound: Cc1ccc(NC(=O)c2ccc(CN3CCN(C)CC3)cc2)cc1Nc1nccc(-c2cccnc2)n1 [Imatinib] + C[C@]1(O)C[C@@H](c2nc(-c3ccc4ccc(-c5ccccc5)nc4c3)c3c(N)nccn32)C1 [Linsitinib] (partner 1 µM)
Summary of the method: as §1

[4] = compound: Cc1ccc(NC(=O)c2ccc(CN3CCN(C)CC3)cc2)cc1Nc1nccc(-c2cccnc2)n1 [Imatinib] + Cc1nc(NC(=O)N2CCC[C@H]2C(N)=O)sc1-c1ccnc(C(C)(C)C(F)(F)F)c1 [Alpelisib] (partner 2 µM)
Summary of the method: as §1

Row | Cell Line | relative viability ([1]; first compound 0.02 µM) | relative viability ([1]; first compound 0.2 µM) | relative viability ([1]; first compound 0.6325 µM) | relative viability ([1]; first compound 2 µM) | relative viability ([2]; first compound 0.02 µM) | relative viability ([2]; first compound 0.06325 µM) | relative viability ([2]; first compound 0.2 µM) | relative viability ([2]; first compound 0.6325 µM) | relative viability ([2]; first compound 2 µM) | relative viability ([1]; first compound 0.06325 µM) | relative viability ([3]; first compound 0.02 µM) | relative viability ([3]; first compound 0.06325 µM) | relative viability ([3]; first compound 0.2 µM) | relative viability ([3]; first compound 0.6325 µM) | relative viability ([3]; first compound 2 µM) | relative viability ([4]; first compound 0.02 µM) | relative viability ([4]; first compound 0.06325 µM) | relative viability ([4]; first compound 0.2 µM) | relative viability ([4]; first compound 0.6325 µM) | relative viability ([4]; first compound 2 µM)
1 | NCI-H1650 | 0.962 | 1.01 | 1.2 | 1.06 | 0.629 | 0.481 | 0.39 | 0.544 | 0.512 | – | – | – | – | – | – | – | – | – | – | –
2 | UMC-11 | 0.981 | 0.973 | 1.14 | 1.11 | 0.514 | 0.542 | 0.64 | 0.499 | 0.456 | 1.31 | 1.14 | 1.57 | 1.05 | 1.08 | 1.06 | 0.982 | 1.18 | 0.957 | 1.03 | 1.03
3 | EPLC-272H | 0.938 | 0.819 | 0.558 | 0.59 | 0.265 | – | 0.273 | 0.311 | 0.249 | – | 1.28 | – | 1.24 | 1.23 | 1.02 | 1.04 | – | 0.987 | 1.03 | 0.843
4 | NCI-H2342 | 1.15 | 1.18 | 0.97 | 0.966 | 0.667 | 0.539 | 0.636 | 0.596 | 0.665 | 1.25 | – | – | – | – | – | – | – | – | – | –
5 | ABC-1 | 0.739 | 0.904 | 1.13 | 0.922 | 0.516 | – | 0.504 | 0.521 | 0.564 | – | 0.727 | – | 0.778 | 0.849 | 0.779 | 1.1 | – | 1.35 | 1.13 | 0.888
6 | LOU-NH91 | 0.943 | 0.891 | 0.929 | 0.879 | 0.759 | 0.708 | 0.745 | 0.699 | 0.658 | 0.923 | 0.993 | 0.964 | 0.996 | 0.869 | 0.87 | 0.77 | 0.722 | 0.729 | 0.68 | 0.674
7 | SW 900 | 0.879 | 1.09 | 0.717 | 1.04 | 0.564 | 0.397 | 0.548 | 0.583 | 0.496 | 1.04 | – | – | – | – | – | – | – | – | – | –
8 | NCI-H838 | 1.15 | 1.07 | 1.02 | 1.02 | 0.407 | 0.389 | 0.406 | 0.407 | 0.421 | 1.17 | 1.12 | 1.37 | 1.3 | 1.03 | 1.02 | 1.02 | 1.06 | 1.12 | 1.06 | 1.04
9 | SK-LU-1 | 0.978 | 0.892 | 0.73 | 0.869 | 0.332 | 0.409 | 0.319 | 0.264 | 0.365 | 0.888 | 1.58 | 1.22 | 1.15 | – | 0.951 | 1.07 | 1.37 | 1.19 | 0.962 | –
10 | HCC-827 | 1.05 | 1.05 | 1.04 | 0.962 | – | 0.732 | 0.937 | 0.705 | 0.824 | 1.04 | 1.02 | 0.96 | – | 0.98 | 0.897 | 0.987 | 0.861 | 1.05 | – | 1.01
11 | PC-3 [JPC-3] | 1.12 | 1.09 | 1.05 | 0.942 | 0.792 | – | 0.854 | 0.877 | 0.711 | – | – | – | 1.05 | 1.04 | – | 1.08 | – | 1.03 | 1.05 | 0.979
12 | NCI-H2228 | 0.905 | 0.891 | 0.886 | 0.899 | 0.755 | – | 0.489 | 0.423 | 0.478 | – | 0.742 | 0.555 | 0.678 | 0.482 | 0.638 | 0.814 | 0.782 | 0.724 | 0.626 | 0.807
13 | NCI-H1703 | 0.329 | 0.372 | 0.402 | 0.347 | – | – | – | – | – | 0.397 | 0.629 | 0.204 | 0.449 | 0.418 | 0.138 | 0.355 | 0.259 | 0.206 | 0.242 | 0.143
14 | HCC-366 | 0.998 | 0.942 | 0.982 | 1.01 | 1.01 | – | 1.05 | 0.812 | 0.748 | – | 0.685 | – | 1.02 | 0.692 | 0.844 | 0.543 | – | 0.431 | 0.362 | 0.35
15 | NCI-H1355 | 1.05 | 1.07 | 0.964 | 0.983 | 0.386 | – | 0.388 | 0.315 | 0.432 | – | 0.865 | – | 0.846 | 0.841 | 0.871 | 0.855 | – | 0.834 | 0.889 | 0.882
16 | NCI-H1563 | 0.924 | 0.902 | 0.845 | 0.925 | 0.825 | 0.803 | 0.774 | 0.743 | 0.731 | – | 1.15 | 1.31 | 1.22 | 1.25 | 1.16 | 0.966 | 0.931 | 1.03 | 0.934 | 0.895
